From US6982251B2, “Substituted 2-azetidinones useful as hypocholesterolemic agents” (Schering Corporation, priority 2000, dated 2006)
Each block holds one compound with its values, some of them ahead of it.

Legend:
Hyperlipidemic Hamster = experiment: In Vivo Assay of Hypolipidemic Agents Using the Hyperlipidemic Hamster; conditions: oral gavage once daily, 7 days, percent change versus control; for % Reduction in Plasma Cholesterol: cholesterol diet, negative = lowering; for % Reduction in Cholesterol Esters: hepatic cholesterol esters
Procedure: In Vivo Assay of Hypolipidemic Agents Using the Hyperlipidemic Hamster
Hamsters are separated into groups of six and given a controlled cholesterol diet (Purina Chow #5001 containing 0.5% cholesterol) for seven days. Diet consumption is monitored to determine dietary cholesterol exposure in the presence of test compounds. The animals are dosed with the test compound once daily beginning with the initiation of diet. Dosing is by oral gavage of 0.2 mL of corn oil alone (control group) or solution (or suspension) of test compound in corn oil. All animals moribund or in poor physical condition are euthanized. After seven days, the animals are anesthetized by IM injection of ketamine and sacrificed by decapitation. Blood is collected into Vacutainer™ tubes containing EDTA for plasma total cholesterol and triglyceride analysis and the liver excised for free and esterified cholesterol and triglyceride tissue analysis. Data is reported as percent reduction of plasma cholesterol and hepatic cholesterol esters versus control levels.
Data is reported as percent change (i.e., percent reduction in plasma cholesterol and in hepatic cholesterol esters) versus control, therefore, negative numbers indicate a positive cholesterol-lowering effect.

human jejunum microsomes = experiment: Incubation with human jejunum microsomes supplemented with UDPGA; format: in vitro ADME; conditions: No hydrolysis; after 2 hr incubation of human jejunum microsomes with 50 μM Compound 6A + UDPGA
β-Glucuronidase = β-Glucuronidase hydrolysis of the glucuronide mixture obtained from jejunum microsomes; format: in vitro ADME; conditions: for Outcome of β-glucuronidase hydrolysis: after hydrolyzing for 18 h

% of Compound 6A (human jejunum microsomes): 32.06%
% of Compound 6A (β-Glucuronidase; Control: 180 min, No microsomes, No UDPGA): 72.92%
% of Compound 6A (β-Glucuronidase; hydrolysis time 5 min): 68.10%
% of Compound 6A (β-Glucuronidase; hydrolysis time 10 min): 61.88%
% of Compound 6A (β-Glucuronidase; hydrolysis time 20 min): 66.02%
% of Compound 6A (β-Glucuronidase; hydrolysis time 30 min): 80.14%
% of Compound 6A (β-Glucuronidase; hydrolysis time 180 min): 84.67%
Structure (SMILES): O=C1[C@H](CC[C@H](O)c2ccc(F)cc2)[C@@H](c2ccc(O)cc2)N1c1ccc(F)cc1 [Compound 6A, ezetimibe]
% Reduction in Plasma Cholesterol (Hyperlipidemic Hamster; dose 1 mg/kg): −59%
% Reduction in Cholesterol Esters (Hyperlipidemic Hamster; dose 1 mg/kg): −95%

% of Example 1 (Phenolic Glucuronide) (human jejunum microsomes): 31.68%
% of Example 1 (Phenolic Glucuronide) (β-Glucuronidase; hydrolysis time 5 min): 2.23%
% of Example 1 (Phenolic Glucuronide) (β-Glucuronidase; hydrolysis time 10 min): 1.04%
% of Example 1 (Phenolic Glucuronide) (β-Glucuronidase; hydrolysis time 20 min): 0.77%
% of Example 1 (Phenolic Glucuronide) (β-Glucuronidase; hydrolysis time 30 min): 0%
% of Example 1 (Phenolic Glucuronide) (β-Glucuronidase; hydrolysis time 180 min): 0%
Structure (SMILES): O=C(O)[C@H]1O[C@@H](Oc2ccc([C@@H]3[C@@H](CC[C@H](O)c4ccc(F)cc4)C(=O)N3c3ccc(F)cc3)cc2)[C@H](O)[C@@H](O)[C@@H]1O [Example 1]
% Reduction in Plasma Cholesterol (Hyperlipidemic Hamster; dose 3 mg/kg): −58%
% Reduction in Cholesterol Esters (Hyperlipidemic Hamster; dose 3 mg/kg): −95%
Relative rate of β-glucuronidase hydrolysis (β-Glucuronidase; 5, 10, 20, 30 and 180 min): hydrolyzed at a faster rate than Compound III
Outcome of β-glucuronidase hydrolysis (β-Glucuronidase): hydrolyzed to form a single Compound 6A peak

% of Compound III (Benzylic Glucuronide) (human jejunum microsomes): 32.14%
% of Compound III (Benzylic Glucuronide) (β-Glucuronidase; hydrolysis time 5 min): 19.30%
% of Compound III (Benzylic Glucuronide) (β-Glucuronidase; hydrolysis time 10 min): 18.58%
% of Compound III (Benzylic Glucuronide) (β-Glucuronidase; hydrolysis time 20 min): 15.12%
% of Compound III (Benzylic Glucuronide) (β-Glucuronidase; hydrolysis time 30 min): 11.22%
% of Compound III (Benzylic Glucuronide) (β-Glucuronidase; hydrolysis time 180 min): 6.5%
Structure (SMILES): O=C(O)C1OC(O[C@@H](CCC2C(=O)N(c3ccc(F)cc3)C2c2ccc(O)cc2)c2ccc(F)cc2)[C@H](O)[C@@H](O)[C@@H]1O (some centres unmarked) [Compound III]
Outcome of β-glucuronidase hydrolysis (β-Glucuronidase): hydrolyzed to form a single Compound 6A peak
